In brackets after ≈: the same amount, converted by molar mass.

Data on ten compounds can be found in ChEMBL document CHEMBL1136254, “Synthesis and SAR of 8-arylquinolines as potent corticotropin-releasing factor1 (CRF1) receptor antagonists” (Bioorg Med Chem Lett, 2003).

The target in series [1] is T1, Corticotropin-releasing factor receptor 1 (Homo sapiens, UniProt P34998).
T1 sequence (P34998 whole entry): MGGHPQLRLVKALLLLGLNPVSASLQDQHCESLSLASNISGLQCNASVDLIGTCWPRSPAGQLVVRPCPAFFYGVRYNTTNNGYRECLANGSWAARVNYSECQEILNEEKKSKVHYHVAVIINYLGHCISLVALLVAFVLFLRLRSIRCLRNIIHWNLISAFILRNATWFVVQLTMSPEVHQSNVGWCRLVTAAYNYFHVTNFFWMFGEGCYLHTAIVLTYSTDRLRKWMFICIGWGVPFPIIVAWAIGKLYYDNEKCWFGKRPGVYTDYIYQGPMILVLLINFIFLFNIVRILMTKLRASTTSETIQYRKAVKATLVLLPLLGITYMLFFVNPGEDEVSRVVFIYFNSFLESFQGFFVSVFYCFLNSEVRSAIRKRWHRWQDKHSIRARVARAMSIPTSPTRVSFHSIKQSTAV
As to the kind of experiment: Binding affinity towards cloned human Corticotropin releasing factor receptor 1 expressed in CHO cells using [125I]o-CRF as the radioligand. The format is cell-based.

In series [2] the target is T1, Corticotropin-releasing factor receptor 1. The experiment in a line: Inhibition of Corticotropin releasing factor receptor 1-stimulated cAMP production. The format is functional.
The nature of series [3]: Solubility at pH 4. The format is physicochemical. As to conditions: buffer.
Series [4] can be described thus: pKa value was determined. The format is physicochemical.

Turning to `CCCN(CC1CC1)c1cc(C)nc2c(-c3ccc(Cl)cc3Cl)cccc12`, the affinity in series [1], expressed as Ki, was 0.5 nM. In addition, in series [2], half-maximal inhibition (IC50) was put at 16 nM. For `CCCN(CC1CC1)c1cc(C)nc2c(-c3c(C)cc(C)cc3C)cccc12`, in series [1], the affinity corresponds to a Ki of 2.2 nM. `COCCN(CCOC)c1cc(C)nc2c(-c3ccc(Cl)cc3Cl)cccc12` came in with a Ki in series [1] of 5.7 nM. Also, it took 14 nM to reach half-maximal inhibition in series [2] (IC50).

Turning to `COCCN(CCOC)c1cc(C)nc2c(-c3c(C)cc(C)cc3C)cccc12`, in series [1], the Ki came out at 6.5 nM. Turning to `CCCCN(CC)c1cc(C)nc2c(-c3ccc(Cl)cc3Cl)cccc12`, the inhibitory constant (Ki) in series [1] is 5.7 nM. Half-maximal inhibition in series [2] (IC50) required 51 nM. For `CCCN(CC1CC1)c1cc(C)nc2c(-c3ccc(Cl)cc3Cl)c(C)ccc12`, the affinity in series [1], expressed as Ki, was 2.5 nM. `CCCN(CCC)c1cc(C)nc2c(-c3ccc(OC)cc3)cccc12`: in series [1], the affinity, expressed as Ki, was 52 nM.

Compound `CCCN(CCC)c1cc(C)nc2c(-c3ccc(Cl)cc3)cccc12` displayed a Ki in series [1] of 8.9 nM. For the compound `CSc1cc(C)nc2c(-c3ccc(Cl)cc3Cl)cccc12`, affinity in series [1] was put at a Ki of 16 nM. `CCCN(CCC)c1cc(C)nc2c(-c3cnc(N(C)C)cc3C)c(C)nn12`: the concentration in solution in series [3] (solubility) came to 10000 µg/mL (≈ 26.3 mM). Also, the pKa in series [4] was found to be 7.1.

Usually Ki stands for a measure of affinity in units of concentration, obtained from inhibition or displacement. Read a high Ki as weaker binding. Usually IC50 stands for the concentration at which inhibition is half-maximal. One may read the solubility as the dissolved amount per volume that the medium holds. One may read the pKa as the negative logarithm of the acid dissociation constant. Read a low pKa as a stronger acid or weaker base.
